#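 Values below derive from 48-hour exposures of cells grown in 96-well plates, with endpoints linearly interpolated between the two concentrations bracketing the appropriate inhibition level. GI50 = concentration required for 50% inhibition of growth. Definition used: TGI = concentration required for complete inhibition of growth.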
# What was measured:
# Assay in all cases: NCI anticancer screen, dose series, 48 h
# 786-0 renal = test system: 786-0 renal
# A498 renal = test system: A498 renal
# A549 NSCLC = test system: A549 NSCLC
# ACHN renal = test system: ACHN renal
# BT-549 breast = test system: BT-549 breast
# CAKI-1 renal = test system: CAKI-1 renal
# CCRF-CEM leukemia = test system: CCRF-CEM leukemia
# COLO 205 colon = test system: COLO 205 colon
# DU-145 prostate = test system: DU-145 prostate
# EKVX NSCLC = test system: EKVX NSCLC
# HCC-2998 colon = test system: HCC-2998 colon
# HCT-116 colon = test system: HCT-116 colon
# HCT-15 colon = test system: HCT-15 colon
# HL-60(TB) leukemia = test system: HL-60(TB) leukemia
# HOP-62 NSCLC = test system: HOP-62 NSCLC
# HOP-92 NSCLC = test system: HOP-92 NSCLC
# HS 578T breast = test system: HS 578T breast
# HT29 colon = test system: HT29 colon
# IGROV1 ovarian = test system: IGROV1 ovarian
# K-562 leukemia = test system: K-562 leukemia
# KM12 colon = test system: KM12 colon
# LOX IMVI melanoma = test system: LOX IMVI melanoma
# M14 melanoma = test system: M14 melanoma
# MALME-3M melanoma = test system: MALME-3M melanoma
# MCF7 breast = test system: MCF7 breast
# MDA-MB-231 breast = test system: MDA-MB-231 breast
# MDA-MB-435 = test system: MDA-MB-435
# MOLT-4 leukemia = test system: MOLT-4 leukemia
# NCI-H226 lung = test system: NCI-H226 lung
# NCI-H23 lung = test system: NCI-H23 lung
# NCI-H460 lung = test system: NCI-H460 lung
# NCI-H522 lung = test system: NCI-H522 lung
# NCI/ADR-RES ovarian = test system: NCI/ADR-RES ovarian
# OVCAR-3 ovarian = test system: OVCAR-3 ovarian
# OVCAR-4 ovarian = test system: OVCAR-4 ovarian
# OVCAR-8 ovarian = test system: OVCAR-8 ovarian
# PC-3 prostate = test system: PC-3 prostate
# RPMI-8226 leukemia = test system: RPMI-8226 leukemia
# RXF 393 renal = test system: RXF 393 renal
# SF-268 CNS = test system: SF-268 CNS
# SF-295 CNS = test system: SF-295 CNS
# SF-539 CNS = test system: SF-539 CNS
# SK-MEL-2 melanoma = test system: SK-MEL-2 melanoma
# SK-MEL-28 melanoma = test system: SK-MEL-28 melanoma
# SK-MEL-5 melanoma = test system: SK-MEL-5 melanoma
# SK-OV-3 ovarian = test system: SK-OV-3 ovarian
# SN12C renal = test system: SN12C renal
# SNB-19 CNS = test system: SNB-19 CNS
# SNB-75 CNS = test system: SNB-75 CNS
# SR leukemia = test system: SR leukemia
# SW-620 colon = test system: SW-620 colon
# T-47D breast = test system: T-47D breast
# TK-10 renal = test system: TK-10 renal
# U251 CNS = test system: U251 CNS
# UACC-257 melanoma = test system: UACC-257 melanoma
# UACC-62 melanoma = test system: UACC-62 melanoma
# UO-31 renal = test system: UO-31 renal
smiles,measurement,setting,value
O=C1C=CC2(NN=C(c3ccccc3)N2c2ccccc2)c2cccc(O)c21 (centres undefined),GI50,786-0 renal,6.13 µM
same,TGI,786-0 renal,43 µM
same,GI50,A498 renal,5.52 µM
same,TGI,A498 renal,19.6 µM
same,GI50,A549 NSCLC,1.84 µM
same,TGI,A549 NSCLC,5 µM
same,GI50,ACHN renal,3.11 µM
same,TGI,ACHN renal,21.5 µM
same,GI50,BT-549 breast,1.13 µM
same,TGI,BT-549 breast,2.69 µM
same,GI50,CAKI-1 renal,5.71 µM
same,TGI,CAKI-1 renal,50.3 µM
same,GI50,CCRF-CEM leukemia,4.83 µM
same,TGI,CCRF-CEM leukemia,> 100 µM
same,GI50,COLO 205 colon,1.89 µM
same,TGI,COLO 205 colon,3.83 µM
same,GI50,DU-145 prostate,1.27 µM
same,TGI,DU-145 prostate,2.56 µM
same,GI50,EKVX NSCLC,1.41 µM
same,TGI,EKVX NSCLC,14.5 µM
same,GI50,HCC-2998 colon,3.83 µM
same,TGI,HCC-2998 colon,13 µM
same,GI50,HCT-116 colon,1.38 µM
same,TGI,HCT-116 colon,5.26 µM
same,GI50,HCT-15 colon,0.472 µM
same,TGI,HCT-15 colon,2.37 µM
same,GI50,HL-60(TB) leukemia,2.77 µM
same,TGI,HL-60(TB) leukemia,8.03 µM
same,GI50,HOP-62 NSCLC,0.693 µM
same,TGI,HOP-62 NSCLC,2.22 µM
same,GI50,HOP-92 NSCLC,22.8 µM
same,TGI,HOP-92 NSCLC,54.2 µM
same,GI50,HS 578T breast,2.86 µM
same,TGI,HS 578T breast,7.63 µM
same,GI50,HT29 colon,2.53 µM
same,TGI,HT29 colon,6.21 µM
same,GI50,IGROV1 ovarian,3.19 µM
same,TGI,IGROV1 ovarian,17.1 µM
same,GI50,K-562 leukemia,1.6 µM
same,TGI,K-562 leukemia,21 µM
same,GI50,KM12 colon,2.65 µM
same,TGI,KM12 colon,18 µM
same,GI50,LOX IMVI melanoma,0.275 µM
same,TGI,LOX IMVI melanoma,1.28 µM
same,GI50,M14 melanoma,1.3 µM
same,TGI,M14 melanoma,2.6 µM
same,GI50,MALME-3M melanoma,1.28 µM
same,TGI,MALME-3M melanoma,2.58 µM
same,GI50,MCF7 breast,1.5 µM
same,TGI,MCF7 breast,3.83 µM
same,GI50,MDA-MB-231 breast,2.37 µM
same,TGI,MDA-MB-231 breast,33.9 µM
same,GI50,MDA-MB-435,0.185 µM
same,TGI,MDA-MB-435,0.336 µM
same,GI50,MOLT-4 leukemia,6.81 µM
same,TGI,MOLT-4 leukemia,> 100 µM
same,GI50,NCI-H226 lung,1.83 µM
same,TGI,NCI-H226 lung,4.53 µM
same,GI50,NCI-H23 lung,0.46 µM
same,TGI,NCI-H23 lung,2.18 µM
same,GI50,NCI-H460 lung,2.56 µM
same,TGI,NCI-H460 lung,10.2 µM
same,GI50,NCI-H522 lung,1.21 µM
same,TGI,NCI-H522 lung,3.4 µM
same,GI50,NCI/ADR-RES ovarian,1.62 µM
same,TGI,NCI/ADR-RES ovarian,30.9 µM
same,GI50,OVCAR-3 ovarian,1.08 µM
same,TGI,OVCAR-3 ovarian,3.7 µM
same,GI50,OVCAR-4 ovarian,0.698 µM
same,TGI,OVCAR-4 ovarian,3.21 µM
same,GI50,OVCAR-8 ovarian,2.4 µM
same,TGI,OVCAR-8 ovarian,> 100 µM
same,GI50,PC-3 prostate,3.19 µM
same,TGI,PC-3 prostate,> 100 µM
same,GI50,RPMI-8226 leukemia,3.52 µM
same,TGI,RPMI-8226 leukemia,> 100 µM
same,GI50,RXF 393 renal,7.36 µM
same,TGI,RXF 393 renal,25 µM
same,GI50,SF-268 CNS,1.84 µM
same,TGI,SF-268 CNS,14.3 µM
same,GI50,SF-295 CNS,1.34 µM
same,TGI,SF-295 CNS,3.18 µM
same,GI50,SF-539 CNS,1.26 µM
same,TGI,SF-539 CNS,2.79 µM
same,GI50,SK-MEL-2 melanoma,4.6 µM
same,TGI,SK-MEL-2 melanoma,21.5 µM
same,GI50,SK-MEL-28 melanoma,1.99 µM
same,TGI,SK-MEL-28 melanoma,4.38 µM
same,GI50,SK-MEL-5 melanoma,0.272 µM
same,TGI,SK-MEL-5 melanoma,0.706 µM
same,GI50,SK-OV-3 ovarian,11.8 µM
same,TGI,SK-OV-3 ovarian,98 µM
same,GI50,SN12C renal,1.47 µM
same,TGI,SN12C renal,2.84 µM
same,GI50,SNB-19 CNS,1.59 µM
same,TGI,SNB-19 CNS,10.8 µM
same,GI50,SNB-75 CNS,1.82 µM
same,TGI,SNB-75 CNS,3.44 µM
same,GI50,SR leukemia,4.38 µM
same,TGI,SR leukemia,76.9 µM
same,GI50,SW-620 colon,1.67 µM
same,TGI,SW-620 colon,3.64 µM
same,GI50,T-47D breast,4.88 µM
same,TGI,T-47D breast,37.7 µM
same,GI50,TK-10 renal,5.46 µM
same,TGI,TK-10 renal,46 µM
same,GI50,U251 CNS,0.587 µM
same,TGI,U251 CNS,20.2 µM
same,GI50,UACC-257 melanoma,1.47 µM
same,TGI,UACC-257 melanoma,2.93 µM
same,GI50,UACC-62 melanoma,1.05 µM
same,TGI,UACC-62 melanoma,2.26 µM
same,GI50,UO-31 renal,1.46 µM
same,TGI,UO-31 renal,7.67 µM

# From PubChem BioAssay (NCI)
